# Earlier results as cited in patent US6096864A, “Peptides for use in wound treatment” (Johnson & Johnson Medical, Ltd., priority 1998, dated 2000).
# Test system: human fibroblast
# Details: concentration range 2.5 mM to 25 mM
substance,measurement,value
Gly-Pro-Ala,chemotactic activity,no chemotactic activity
